# Measured values taken from ChEMBL document CHEMBL4811310, “Antimalarial activity of 2,6-dibenzylidenecyclohexanone derivatives” (Bioorg Med Chem Lett, 2021).
# What was measured:
# BJ = test: Cytotoxicity against human BJ cells assessed as reduction in cell viability; assay type: cell-based
# [1] = Solubility in PBS buffer at pH 7.4; assay type: physicochemical
# [2] = Therapeutic index, ratio of EC50 for cytotoxicity against human BJ cells to EC50 for antimalarial activity against CQ-sensitive Plasmodium falciparum 3D7 MRA-102 infected in human O-positive erythrocytes; assay type: toxicity, cell-based; conditions: read-out: Ratio EC50
# Plasmodium falciparum [3] = test: Antimalarial activity against CQ-sensitive Plasmodium falciparum 3D7 MRA-102 infected in human O-positive erythrocytes assessed as inhibition of parasite growth; assay type: functional, organism-based; conditions: 3D7 MRA-102, Erythrocyte
# Plasmodium falciparum [4] = test: Antimalarial activity against CQ-sensitive Plasmodium falciparum 3D7 MRA-102 infected in human O-positive erythrocytes assessed as inhibition of parasite growth at 16 uM; assay type: functional; conditions: 3D7 MRA-102, Erythrocyte
# Plasmodium falciparum [5] = test: Antimalarial activity against Plasmodium falciparum K1 infected in human erythrocytes assessed as inhibition of parasite growth; assay type: functional, organism-based; conditions: K1, Erythrocyte
# Plasmodium falciparum [6] = test: Antimalarial activity against Plasmodium falciparum V1S infected in human erythrocytes assessed as inhibition of parasite growth; assay type: functional, organism-based; conditions: Erythrocyte
# [7] = Cytotoxicity against human BJ cells assessed as reduction in cell viability at 58 uM; assay type: cell-based; conditions: read-out: INH
SMILES,EC50 (BJ) [nM],solubility [1] [µM],selectivity ratio [2],EC50 (Plasmodium falciparum [3]) [nM],inhibition at 16 µM (Plasmodium falciparum [4]) [%],EC50 (Plasmodium falciparum [5]) [nM],EC50 (Plasmodium falciparum [6]) [nM],cytotoxicity at 58 µM [7] [%]
CC1C/C(=C\c2cccc(C(F)(F)F)c2)C(=O)/C(=C/c2cccc(C(F)(F)F)c2)C1 (configuration not stated),20100,< 1,18,1100,,,,
N#CC1(c2ccccc2)C/C(=C\c2cccc(F)c2)C(=O)/C(=C/c2cccc(F)c2)C1 (configuration not stated),2270,< 1,2,1130,,,,
O=C1/C(=C/c2cccc(C(F)(F)F)c2)CCC/C1=C\c1cccc(C(F)(F)F)c1,23500,< 1,10,2290,,,,
O=C1/C(=C/c2cccc(C(F)(F)F)c2)CSC/C1=C\c1cccc(C(F)(F)F)c1,23200,1.2,28,820,,,,
N#CC1(c2ccccc2)C/C(=C\c2ccccc2)C(=O)/C(=C/c2ccccc2)C1 (configuration not stated),5850,< 1,4,1360,,,,
"O[C@@H](c1cc(C(F)(F)F)nc2c(C(F)(F)F)cccc12)[C@H]1CCCCN1 [(S,R)-MEFLOQUINE]",,,,,100,,,
O=C1/C(=C/c2cccc(C(F)(F)F)c2)CS(=O)(=O)C/C1=C\c1cccc(C(F)(F)F)c1,120,< 1,< 1,393,,,,
N#CC1(c2ccccc2)C/C(=C\c2cccc(C(F)(F)F)c2)C(=O)/C(=C/c2cccc(C(F)(F)F)c2)C1 (configuration not stated),570,,2,331,,530,250,
O=C1/C(=C/c2cccc(C(F)(F)F)c2)COC/C1=C\c1cccc(C(F)(F)F)c1,23700,1.4,20,1160,,,,
N#CC1(c2ccccc2)C/C(=C\c2cccc(C(F)(F)F)c2)C(O)/C(=C/c2cccc(C(F)(F)F)c2)C1 (configuration not stated),> 24000,2.5,> 7,3210,,,,
N#CC1(c2ccccc2)CC(Cc2cccc(C(F)(F)F)c2)C(=O)C(Cc2cccc(C(F)(F)F)c2)C1 (configuration not stated),> 24000,2.3,> 23,1030,,,,
O=C1/C(=C/c2cccc(C(F)(F)F)c2)CC(c2ccccc2)C/C1=C\c1cccc(C(F)(F)F)c1 (configuration not stated),1530,1.1,3,491,,,,
N#CC1(c2ccccc2)C/C(=C\c2ccc(C(F)(F)F)cc2)C(=O)/C(=C/c2ccc(C(F)(F)F)cc2)C1 (configuration not stated),406,< 1,2,207,,,,
NC(=O)N1c2ccccc2C=Cc2ccccc21 [CARBAMAZEPINE],,> 100,,,,,,
CC(C)(C)C1C/C(=C\c2cccc(C(F)(F)F)c2)C(=O)/C(=C/c2cccc(C(F)(F)F)c2)C1 (configuration not stated),> 24000,< 1,> 37,641,,,,
CC(=O)[C@]1(O)Cc2c(O)c3c(c(O)c2[C@@H](O[C@H]2C[C@H](N)[C@H](O)[C@H](C)O2)C1)C(=O)c1ccccc1C3=O [IDARUBICIN],,,,,,,,100
CCCSc1ccc2nc(NC(=O)OC)[nH]c2c1 [ALBENDAZOLE],,< 1,,,,,,
